The structures appear in SMILES notation.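 These data come from cells grown in 96-well plates and exposed to compound for 48 hours at five concentrations. GI50: concentration for 50% inhibition of growth.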 Activity calls are given as the source filed them. Cut-off read from the data, not from the text of the source: active = GI50 up to about 1.1 µM and inactive = higher.

Among the test systems are A498; ACHN; CCRF-CEM; COLO 205; HCC 2998; HL-60; HOP-92; HT-29; NCI-H23; NCI-H460; NCI/ADR-RES; OVCAR-5; OVCAR-8; PC-3; SK-MEL-2; SNB-19; SW-620; U-251; UACC-257; NCI-H226.
Common to all, as to assay: NCI anticancer screen, dose series, 48 h

With `CCOC(=O)c1csc(NC(=O)C(C)N2CCCCC2)n1` (stereo unspecified), the GI50 in the assay with A498, with ACHN, with CCRF-CEM, in the assay with COLO 205, with HCC 2998 and in the assay on HL-60 was > 100 µM (inactive) throughout. Further, the GI50 in the assay with HOP-92, with HT-29, in the assay with NCI-H23, in the assay on NCI-H460, in the assay on NCI/ADR-RES and with OVCAR-5 was > 100 µM (inactive) each time. Also, the GI50 in the assay on OVCAR-8, in the assay with PC-3, in the assay with SK-MEL-2, with SNB-19, with SW-620 and in the assay on U-251 was > 100 µM (inactive) throughout. In the assay on UACC-257, the GI50 is > 100 µM (inactive).
`N#Cc1nnn(-c2ccc(Br)cc2)c1O`: the GI50 with A498, with ACHN, in the assay with CCRF-CEM, with COLO 205, in the assay with HCC 2998 and in the assay with HL-60 was > 100 µM (inactive) throughout. The GI50 in the assay on HT-29, with NCI-H226, with NCI-H23, in the assay with NCI/ADR-RES, with OVCAR-5 and in the assay on OVCAR-8 was > 100 µM (inactive) in each case. In addition, the GI50 in the assay with PC-3, in the assay with SK-MEL-2, with SNB-19, with SW-620, with U-251 and in the assay on UACC-257 was > 100 µM (inactive) throughout.
Take `COc1cc(C(=O)C2CC3(CCC2(O)c2cc(OC)c(OC)c(OC)c2)CC(=O)Nc2ccccc2C3=O)cc(OC)c1OC` (stereo unspecified): the GI50 in the assay with A498 is > 100 µM (inactive); in the assay on CCRF-CEM, 37.3 µM (inactive); in the assay on COLO 205, 26.5 µM (inactive); in the assay on HCC 2998 it was 50.7 µM (inactive); in the assay with HL-60 it was 30.5 µM (inactive); in the assay with HOP-92, 40.4 µM (inactive). In addition, the GI50 is > 100 µM (inactive) with HT-29; > 100 µM (inactive) with NCI-H226; 88.9 µM (inactive) in the assay on NCI-H23; 21.5 µM (inactive) in the assay with NCI-H460; > 100 µM (inactive) with NCI/ADR-RES; > 100 µM (inactive) in the assay with OVCAR-5. Moreover, the GI50 was > 100 µM (inactive) in the assay with OVCAR-8; 42.6 µM (inactive) in the assay on PC-3; 89.9 µM (inactive) in the assay with SK-MEL-2; > 100 µM (inactive) with SNB-19; > 100 µM (inactive) in the assay on SW-620; > 100 µM (inactive) in the assay on U-251. In the assay with UACC-257, the GI50 is > 100 µM (inactive).
As to `CN1c2ccccc2SC2C(c3ccccc3)=NOC21` (stereo unspecified), the GI50 with A498 was 28.4 µM (inactive); with ACHN it was 52.6 µM (inactive); with CCRF-CEM it was > 100 µM (inactive); in the assay on COLO 205, 22.7 µM (inactive); with HCC 2998 it was 23.3 µM (inactive); in the assay with HL-60, 53.7 µM (inactive). The GI50 is 30.1 µM (inactive) with HT-29; 47.6 µM (inactive) in the assay on NCI-H226; 23.1 µM (inactive) with NCI-H23; 28.5 µM (inactive) with NCI-H460; 29.8 µM (inactive) in the assay on NCI/ADR-RES; 94.8 µM (inactive) in the assay with OVCAR-5. Also, the GI50 in the assay with OVCAR-8 was 49.3 µM (inactive); with PC-3, 18 µM (inactive); with SK-MEL-2 it was 38.5 µM (inactive); in the assay on SNB-19, 73.3 µM (inactive); in the assay on SW-620, 25.1 µM (inactive); with U-251, 38.5 µM (inactive). For the same compound, in the assay on UACC-257, the GI50 is > 10 µM (inactive).
In the case of `CN1C(=O)[C@@H]2[C@@H]3c4ccccc4N(S(=O)(=O)C(F)(F)F)[C@@H]3c3[nH]c4ccccc4c3[C@@H]2C1=O`, the GI50 in the assay with A498 is > 100 µM (inactive); with ACHN, 25.1 µM (inactive); with CCRF-CEM it was 25.2 µM (inactive); with COLO 205 it was 7.91 µM (inactive); in the assay with HCC 2998, > 100 µM (inactive); in the assay with HOP-92, 1.63 µM (inactive). In addition, the GI50 is 7.67 µM (inactive) in the assay with HT-29; 5.52 µM (inactive) in the assay on NCI-H226; 54.1 µM (inactive) in the assay on NCI-H23; 21.5 µM (inactive) in the assay on NCI-H460; 26.3 µM (inactive) in the assay on NCI/ADR-RES; > 100 µM (inactive) with OVCAR-5. The GI50 was 83 µM (inactive) in the assay with OVCAR-8; 8.47 µM (inactive) in the assay with PC-3; 81.5 µM (inactive) in the assay on SK-MEL-2; > 100 µM (inactive) in the assay with SNB-19; > 100 µM (inactive) with SW-620; 31.3 µM (inactive) in the assay with U-251. Further, the GI50 in the assay with UACC-257 is 62.5 µM (inactive).
For the compound `Cc1ccc2c(O)cc(-c3sccc3C)nc2n1`, the GI50 was 0.562 µM (active) in the assay with A498; 1.1 µM (active) in the assay with ACHN; 0.635 µM (active) in the assay with CCRF-CEM; 0.37 µM (active) in the assay on COLO 205; 1.02 µM (active) in the assay on HCC 2998; 0.174 µM (active) in the assay on HL-60. The GI50 with HOP-92 is > 36.8 µM (inactive); with HT-29, 1.33 µM (inactive); with NCI-H226, 1.38 µM (inactive); with NCI-H23 it was 0.337 µM (active); with NCI-H460, 0.44 µM (active); in the assay on NCI/ADR-RES, 0.326 µM (active). In addition, the GI50 with OVCAR-5 is 1.67 µM (inactive); with OVCAR-8, 1.99 µM (inactive); with PC-3, 0.426 µM (active); with SNB-19, 0.78 µM (active); in the assay on SW-620, 0.264 µM (active); in the assay on U-251, 0.832 µM (active).
With `CCOP(=O)(OCC)C(Nc1ccc(C(=O)O)cc1)c1ccc(C(Nc2ccc(C(=O)O)cc2)P(=O)(OCC)OCC)cc1` (stereo unspecified), the GI50 with A498, in the assay on ACHN, with CCRF-CEM, in the assay with COLO 205, in the assay with HCC 2998 and with HOP-92 was > 100 µM (inactive) in each case. Further, the GI50 in the assay on HT-29, in the assay on NCI-H226, in the assay on NCI-H23, with NCI-H460, in the assay with NCI/ADR-RES and in the assay with OVCAR-5 was > 100 µM (inactive) each time. Moreover, the GI50 in the assay with OVCAR-8, with PC-3, in the assay on SK-MEL-2, in the assay with SNB-19, in the assay with SW-620 and with U-251 was > 100 µM (inactive) in each case. In the assay on UACC-257, the GI50 was > 100 µM (inactive).
Regarding `NCC(=O)N[C@H]1c2ccsc2/C(=N/O)[C@H]1O`, the GI50 in the assay on A498, with CCRF-CEM, in the assay with COLO 205, in the assay on HCC 2998, in the assay with HL-60 and with HOP-92 was > 100 µM (inactive) in each case. Also, the GI50 in the assay with HT-29, in the assay on NCI-H226, in the assay on NCI-H23, in the assay with NCI-H460, in the assay on NCI/ADR-RES and in the assay on OVCAR-5 was > 100 µM (inactive) each time. The GI50 with OVCAR-8, in the assay with PC-3, in the assay with SK-MEL-2, in the assay with SW-620, in the assay with U-251 and in the assay with UACC-257 was > 100 µM (inactive) each time.
Regarding `O=C1CC2(CCC(O)(c3cccc4ccccc34)C(C(=O)c3cccc4ccccc34)C2)C(=O)c2ccccc2N1` (stereo unspecified), the GI50 with A498 is > 100 µM (inactive); in the assay with CCRF-CEM it was > 10 µM (inactive); in the assay on COLO 205, 29.6 µM (inactive); with HCC 2998, 26.1 µM (inactive); in the assay on HL-60 it was > 10 µM (inactive); in the assay on HOP-92, 7.43 µM (inactive). Moreover, the GI50 is 7.93 µM (inactive) with HT-29; > 100 µM (inactive) with NCI-H226; 62.2 µM (inactive) with NCI-H23; 7.78 µM (inactive) in the assay with NCI-H460; > 100 µM (inactive) in the assay on NCI/ADR-RES; 71.8 µM (inactive) with OVCAR-5. Also, the GI50 in the assay with OVCAR-8 is > 100 µM (inactive); with PC-3, 91 µM (inactive); with SK-MEL-2, > 100 µM (inactive); with SNB-19, 5.09 µM (inactive); in the assay with SW-620, 24.2 µM (inactive); in the assay on U-251 it was 11.1 µM (inactive). The GI50 in the assay with UACC-257 is > 100 µM (inactive).
Regarding `CN(C)/N=N/c1ccc(NC=O)cc1`, the GI50 is > 100 µM (inactive) in the assay with A498; > 100 µM (inactive) in the assay with ACHN; 40.7 µM (inactive) in the assay on CCRF-CEM; > 100 µM (inactive) in the assay with COLO 205; > 100 µM (inactive) in the assay on HCC 2998; 51.9 µM (inactive) in the assay with HL-60. The GI50 with HOP-92 is > 100 µM (inactive); with HT-29, > 100 µM (inactive); in the assay on NCI-H460, > 100 µM (inactive); with NCI/ADR-RES, > 100 µM (inactive); in the assay with OVCAR-5, 90.4 µM (inactive); in the assay on OVCAR-8, > 100 µM (inactive). In addition, the GI50 in the assay on PC-3, in the assay on SK-MEL-2, in the assay with SNB-19, in the assay with SW-620, in the assay with U-251 and with UACC-257 was > 100 µM (inactive) in each case.
